Results published in patent US8846719B2, “Isoxazolo-pyridine derivatives” (Roche Palo Alto LLC, priority 2007, dated 2014).

Biological target: human GABA A receptor α5β3γ2 (Homo sapiens (Human), UniProt P18507+P31644)
Assay: [3H]flumazenil competition binding assay, human GABA A α5β3γ2 receptors expressed in HEK293 cells
Conditions: human receptor; displacement of [3H]flumazenil (0.5 nM); means of two determinations; read-out: hKi GABAAa5
How it was run: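 Competition for [3H]flumazenil binding on membranes of HEK293 cells transiently transfected with human α5β3γ2 receptors, in Krebs-tris buffer pH 7.5.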

SMILES | Ki
O=C(NCCO)c1ccc(OCc2conc2-c2ccc(Cl)cc2)nc1 [Example 346, 6-[3-(4-Chloro-phenyl)-isoxazol-4-ylmethoxy]-N-(2-hydroxy-ethyl)-nicotinamide] | 10.9 nM
Cc1onc(-c2ccccc2)c1COc1ccc(C(=O)N2CCCC2C)cn1 (stereo not drawn) [Example 227, [6-(5-Methyl-3-phenyl-isoxazol-4-ylmethoxy)-pyridin-3-yl]-(2-methyl-pyrrolidin-1-yl)-methanone] | 48 nM
O=C(NC1CC1)c1ccc(OCc2c(-c3ccccc3)noc2C(F)(F)F)nc1 [Example 134, N-Cyclopropyl-6-(3-phenyl-5-trifluoromethyl-isoxazol-4-ylmethoxy)-nicotinamide] | 23.8 nM
Cc1onc(-c2ccc(F)cc2)c1CNc1ccc(C(=O)N2CCS(=O)(=O)CC2)cn1 [Example 178, (1,1-Dioxo-1,6-thiomorpholin-4-yl)-(6-{[3-(4-fluoro-phenyl)-5-methyl-isoxazol-4-ylmethyl]-amino}-pyridin-3-yl)-methanone] | 29.2 nM
O=C(NCC1CC1)c1ccc(OCc2conc2-c2ccc(F)cc2)nc1 [Example 328, N-Cyclopropylmethyl-6-[3-(4-fluoro-phenyl)-isoxazol-4-ylmethoxy]-nicotinamide] | 17.4 nM
Cc1onc(-c2ccccc2)c1COc1ccc(C(=O)N2CCC2)cn1 [Example 240, Azetidin-1-yl-[6-(5-methyl-3-phenyl-isoxazol-4-ylmethoxy)-pyridin-3-yl]-methanone] | 13.9 nM
Cc1onc(-c2ccccc2)c1COc1ccc(C(=O)NC2CN(C(=O)OC(C)(C)C)C2)cn1 [Example 216, 3-{[6-(5-Methyl-3-phenyl-isoxazol-4-ylmethoxy)-pyridine-3-carbonyl]-amino}-azetidine-1-carboxylic acid tert-butyl ester] | 4.5 nM
CCC(CC)CNC(=O)c1ccc(OCc2c(-c3ccccc3)noc2C)nc1 [Example 17, N-(2-Ethyl-butyl)-6-(5-methyl-3-phenyl-isoxazol-4-ylmethoxy)-nicotinamide] | 7.7 nM
Cc1onc(-c2ccccc2)c1COc1ccc(C(=O)N(C)S(=O)(=O)C2CC2)cn1 [Example 236, Cyclopropanesulfonic acid methyl-[6-(5-methyl-3-phenyl-isoxazol-4-ylmethoxy)-pyridine-3-carbonyl]-amide] | 36.7 nM
CC(C)NC(=O)c1ccc(OCc2conc2-c2ccc(F)cc2)nc1 [Example 323, 6-[3-(4-Fluoro-phenyl)-isoxazol-4-ylmethoxy]-N-isopropyl-nicotinamide] | 7.3 nM
Cc1onc(-c2ccc(Cl)cn2)c1COc1ccc(C(=O)O)cn1 [Example 304, 6-[3-(5-Chloro-pyridin-2-yl)-5-methyl-isoxazol-4-ylmethoxy]-nicotinic acid] | 3.8 nM
CC(C)(CO)CNC(=O)c1ccc(OCc2conc2-c2ccc(Cl)cc2)nc1 [Example 350, 6-[3-(4-Chloro-phenyl)-isoxazol-4-ylmethoxy]-N-(3-hydroxy-2,2-dimethyl-propyl)-nicotinamide] | 22.9 nM
COC(=O)c1ccc(OCc2c(-c3cccc(F)c3)noc2C)nc1 [Example 88, 6-[3-(3-Fluoro-phenyl)-5-methyl-isoxazol-4-ylmethoxy]-nicotinic acid methyl ester] | 17.4 nM
Cc1onc(-c2ccccc2)c1COc1ccc([S+](C)[O-])cn1 (stereo not drawn) [Example 248, 5-Methanesulfinyl-2-(5-methyl-3-phenyl-isoxazol-4-ylmethoxy)-pyridine] | 28.1 nM
CCCCS(=O)(=O)NC(=O)c1ccc(OCc2c(-c3ccccc3)noc2C)nc1 [Example 233, Butane-1-sulfonic acid [6-(5-methyl-3-phenyl-isoxazol-4-ylmethoxy)-pyridine-3-carbonyl]-amide] | 32.2 nM
Cc1onc(-c2ccccc2)c1COc1ccc(C(=O)N[C@@H]2CCCC[C@H]2O)cn1 [Example 197, N-((1R,2R)-2-Hydroxy-cyclohexyl)-6-(5-methyl-3-phenyl-isoxazol-4-ylmethoxy)-nicotinamide] | 11 nM
COCCCNC(=O)c1ccc(OCc2c(-c3ccccc3)noc2C)nc1 [Example 15, N-(3-Methoxy-propyl)-6-(5-methyl-3-phenyl-isoxazol-4-ylmethoxy)-nicotinamide] | 5.2 nM
Cc1onc(-c2ccccc2)c1COc1ccc(C(=O)N[C@@H]2CCC[C@@H]2O)cn1 (single isomer, unassigned) [Example 210, N-((1R,2S)-2-Hydroxy-cyclopentyl)-6-(5-methyl-3-phenyl-isoxazol-4-ylmethoxy)-nicotinamide or N-((1S,2R)-2-hydroxy-cyclopentyl)-6-(5-methyl-3-phenyl-isoxazol-4-ylmethoxy)-nicotinamide] | 5 nM
CC(C)NC(=O)c1ccc(OCc2c(-c3ccc(F)cc3)noc2C(F)(F)F)nc1 [Example 142, 6-[3-(4-Fluoro-phenyl)-5-trifluoromethyl-isoxazol-4-ylmethoxy]-N-isopropyl-nicotinamide] | 33.5 nM
CCNC(=O)c1ccc(OCc2conc2-c2ccc(F)cn2)nc1 [Example 371, Ethyl-6-[3-(5-fluoro-pyridin-2-yl)-isoxazol-4-ylmethoxy]-nicotinamide] | 14.1 nM

SMILES | Ki
Cc1onc(-c2ccccc2)c1COc1cc(C(F)(F)F)c(C(=O)NC(C)C)cn1 [Example 62, N-Isopropyl-6-(5-methyl-3-phenyl-isoxazol-4-ylmethoxy)-4-trifluoromethyl-nicotinamide] | 14.6 nM
O=C(NC1CCOCC1)c1ccc(OCc2conc2-c2ccccn2)nc1 [Example 358, 6-(3-Pyridin-2-yl-isoxazol-4-ylmethoxy)-N-(tetrahydro-pyran-4-yl)-nicotinamide] | 17.8 nM
O=C(c1ccc(OCc2c(-c3ccc(F)cc3)noc2C(F)(F)F)nc1)N1CCS(=O)(=O)CC1 [Example 145, (1,1-Dioxo-1λ6-thiomorpholin-4-yl)-{6-[3-(4-fluoro-phenyl)-5-trifluoromethyl-isoxazol-4-ylmethoxy]-pyridin-3-yl}-methanone] | 58.9 nM
Cc1onc(-c2cccnc2)c1COc1ccc(C(=O)NCC2CC2)cn1 [Example 156, N-Cyclopropylmethyl-6-(5-methyl-3-pyridin-3-yl-isoxazol-4-ylmethoxy)-nicotinamide] | 29.8 nM
O=C(N[C@@H]1CCC[C@H]1O)c1ccc(OCc2conc2-c2ccc(F)cc2)nc1 (single isomer, unassigned) [Example 332, 6-[3-(4-Fluoro-phenyl)-isoxazol-4-ylmethoxy]-N-((1R,2R)-2-hydroxy-cyclopentyl)-nicotinamide or 6-[3-(4-fluoro-phenyl)-isoxazol-4-ylmethoxy]-N-((1S,2S)-2-hydroxy-cyclopentyl)-nicotinamide] | 22.6 nM
CNC(=O)c1ccc(OCc2c(-c3ccc(F)cc3)noc2C(F)(F)F)nc1 [Example 137, 6-[3-(4-Fluoro-phenyl)-5-trifluoromethyl-isoxazol-4-ylmethoxy]-N-methyl-nicotinamide] | 19.8 nM
COC(=O)c1ccc(NCc2c(-c3cccc(F)c3)noc2C)nc1 [Example 167, 6-{[3-(3-Fluoro-phenyl)-5-methyl-isoxazol-4-ylmethyl]-amino}-nicotinic acid methyl ester] | 69.3 nM
CC(CO)NC(=O)c1ccc(OCc2conc2-c2ccc(F)cc2)nc1 (stereo not drawn) [Example 325, 6-[3-(4-Fluoro-phenyl)-isoxazol-4-ylmethoxy]-N-(2-hydroxy-1-methyl-ethyl)-nicotinamide] | 9 nM
CCNC(=O)c1ccc(OCc2c(-c3ccncn3)noc2C)nc1 [Example 317, N-Ethyl-6-(5-methyl-3-pyrimidin-4-yl-isoxazol-4-ylmethoxy)-nicotinamide] | 3.1 nM
Cc1onc(-c2cccc(F)c2)c1CNc1ccc(C(=O)NC2CC2)cn1 [Example 170, N-Cyclopropyl-6-{[3-(3-fluoro-phenyl)-5-methyl-isoxazol-4-ylmethyl]-amino}-nicotinamide] | 19.4 nM
COC1CN(C(=O)c2ccc(OCc3c(-c4ccccc4)noc3C)nc2)C1 [Example 241, (3-Methoxy-azetidin-1-yl)-[6-(5-methyl-3-phenyl-isoxazol-4-ylmethoxy)-pyridin-3-yl]-methanone] | 16 nM
Cc1onc(-c2ccccc2)c1COc1ccc(C(=O)OC(C)C)cn1 [Example 83, 6-(5-Methyl-3-phenyl-isoxazol-4-ylmethoxy)-nicotinic acid isopropyl ester] | 4.7 nM
Cc1onc(-c2ccccn2)c1COc1ccc(C(=O)NC2CC2)cn1 [Example 278, N-Cyclopropyl-6-(5-methyl-3-pyridin-2-yl-isoxazol-4-ylmethoxy)-nicotinamide] | 1.6 nM
O=C(NCCO)c1ccc(OCc2conc2-c2ccc(F)cn2)nc1 [Example 370, 6-[3-(5-Fluoro-pyridin-2-yl)-isoxazol-4-ylmethoxy]-(2-hydroxy-ethyl)-nicotinamide] | 21.4 nM
Cc1onc(-c2ccncc2)c1COc1ccc(C(=O)N2CCS(=O)(=O)CC2)cn1 [Example 153, (1,1-Dioxo-1λ6-thiomorpholin-4-yl)-[6-(5-methyl-3-pyridin-4-yl-isoxazol-4-ylmethoxy)-pyridin-3-yl]-methanone] | 65.7 nM
Cc1onc(-c2ccccc2)c1COc1ccc(C(=O)NC(CO)CO)cn1 [Example 201, N-(2-Hydroxy-1-hydroxymethyl-ethyl)-6-(5-methyl-3-phenyl-isoxazol-4-ylmethoxy)-nicotinamide] | 1.7 nM
CC(=O)Nc1ccc(OCc2c(-c3ccccc3)noc2C)nc1 [Example 179, N-[6-(5-Methyl-3-phenyl-isoxazol-4-ylmethoxy)-pyridin-3-yl]-acetamide] | 9.4 nM
Cc1cccc(-c2noc(C)c2COc2ccc(C(=O)NC3CCOCC3)cn2)c1 [Example 249, 6-(5-Methyl-3-m-tolyl-isoxazol-4-ylmethoxy)-N-(tetrahydro-pyran-4-yl)-nicotinamide] | 3.2 nM
Cc1onc(-c2ccccc2)c1COc1ccc(C(=O)N2CCCC2)cn1 [Example 228, [6-(5-Methyl-3-phenyl-isoxazol-4-ylmethoxy)-pyridin-3-yl]-pyrrolidin-1-yl-methanone] | 37.1 nM
